In patent publication US10947271B2, “Antibacterial agents” (THE UNIVERSITY OF QUEENSLAND, priority 2014, dated 2021):

Key:
Format in all cases: cell-based
Settings in all cases: 24 h incubation, visual reading
[1] = system: Streptococcus pneumoniae MDR ATCC 700677; assay: MIC assay, S. pneumoniae MDR ATCC 700677
Outline: (§1)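 Mid-log cultures in MHB were added at 5×10e5 CFU/mL to compounds diluted twofold from 8 to 0.003 μg/ml. Visual inspection after 24 h incubation at 37° C. gave the MIC, the lowest concentration without visible growth.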

[2] = system: Enterococcus faecium MDR Van A ATCC 51559; assay: MIC assay, E. faecium MDR Van A ATCC 51559
Outline: as §1

[3] = system: Staphylococcus aureus MRSA ATCC 43300; assay: MIC assay, S. aureus MRSA ATCC 43300
Outline: as §1

| Structure (SMILES) | Minimum Inhibitory Concentration (MIC) S. pneumoniae ATCC 700677 [1] | Minimum Inhibitory Concentration (MIC) E. faecium ATCC51559 [2] | Minimum Inhibitory Concentration (MIC) Staph. aureus ATCC43300 [3] |
| --- | --- | --- | --- |
| CNC(=O)[C@H](CCCCNC(=O)[C@H]1NC(=O)[C@H]2NC(=O)[C@H](NC(=O)[C@@H]3NC(=O)[C@H](CC(N)=O)NC(=O)[C@H](NC(=O)[C@@H](CC(C)C)NC)[C@H](O)c4ccc(c(Cl)c4)Oc4cc3cc(c4O[C@@H]3O[C@H](CO)[C@@H](O)[C@H](O)[C@H]3O)Oc3ccc(cc3Cl)[C@H]2O)c2ccc(O)c(c2)-c2c(O)cc(O)cc21)NC(=O)[C@H](CCCCN)NC(=O)[C@H](CCCCN)NC(=O)[C@H](CCCCNC(=O)c1ccc(Oc2ccc(F)cc2)cc1)NC(=O)c1ccc(Oc2ccc(F)cc2)cc1 [MCC_000651] | xxxx (xxxx = 0.01-<0.1) | xx (xx = 1-4) | xxxxx (xxxxx = <0.01) |
| CCCCCCCCCC(=O)NC(CCCCN)C(=O)NC(CCCNC(=N)N)C(=O)NCCCNC(=O)C1NC(=O)C2NC(=O)C(NC(=O)C3NC(=O)C(CC(N)=O)NC(=O)C(NC(=O)C(CC(C)C)NC)C(O)c4ccc(c(Cl)c4)Oc4cc3cc(c4OC3OC(CO)C(O)C(O)C3OC3CC(C)(N)C(O)C(C)O3)Oc3ccc(cc3Cl)C2O)c2ccc(O)c(c2)-c2c(O)cc(O)cc21 (stereo not drawn) [MCC_005486] | xxxx (xxxx = 0.01-<0.1) | xx (xx = 1-4) | xxxxx (xxxxx = <0.01) |
| CNc1ccc(C(=O)N[C@@H](CCCCN)C(=O)N[C@@H](CCCCN)C(=O)N[C@@H](CCCCNC(=O)[C@H]2NC(=O)[C@H]3NC(=O)[C@H](NC(=O)[C@@H]4NC(=O)[C@H](CC(N)=O)NC(=O)[C@H](NC(=O)[C@@H](CC(C)C)NC)[C@H](O)c5ccc(c(Cl)c5)Oc5cc4cc(c5O[C@@H]4O[C@H](CO)[C@@H](O)[C@H](O)[C@H]4O[C@H]4C[C@](C)(N)[C@H](O)[C@H](C)O4)Oc4ccc(cc4Cl)[C@H]3O)c3ccc(O)c(c3)-c3c(O)cc(O)cc32)C(N)=O)cc1 [MCC_004822] | xx (xx = 1-4) | x (x = >4) | xxx (xxx = 0.1-<1) |
| CCCCCCCCCCC(=O)NC(CCCNC(=N)N)C(=O)NCCCNC(=O)C1NC(=O)C2NC(=O)C(NC(=O)C3NC(=O)C(CC(N)=O)NC(=O)C(NC(=O)C(CC(C)C)NC)C(O)c4ccc(c(Cl)c4)Oc4cc3cc(c4OC3OC(CO)C(O)C(O)C3OC3CC(C)(N)C(O)C(C)O3)Oc3ccc(cc3Cl)C2O)c2ccc(O)c(c2)-c2c(O)cc(O)cc21 (stereo not drawn) [MCC_007337] | xxxxx (xxxxx = <0.01) | xx (xx = 1-4) | xxxxx (xxxxx = <0.01) |
| CCCCCCCCCCC(=O)NCCCC[C@H](NC(=O)CCCCCCCCCC)C(=O)N[C@@H](CCCCN)C(=O)N[C@@H](CCCCN)C(=O)N[C@@H](CCCCNC(=O)[C@H]1NC(=O)[C@H]2NC(=O)[C@H](NC(=O)[C@@H]3NC(=O)[C@H](CC(N)=O)NC(=O)[C@H](NC(=O)[C@@H](CC(C)C)NC)[C@H](O)c4ccc(c(Cl)c4)Oc4cc3cc(c4O[C@@H]3O[C@H](CO)[C@@H](O)[C@H](O)[C@H]3O[C@H]3C[C@](C)(N)[C@H](O)[C@H](C)O3)Oc3ccc(cc3Cl)[C@H]2O)c2ccc(O)c(c2)-c2c(O)cc(O)cc21)C(=O)O [MCC_000231] | xx (xx = 1-4) | x (x = >4) | xx (xx = 1-4) |
| CNC(CC(C)C)C(=O)NC1C(=O)NC(CC(N)=O)C(=O)NC2C(=O)NC3C(=O)NC(C(=O)NC(C(=O)NCCCCC(NC(=O)C(CCCCN)NC(=O)C(CCCCN)NC(=O)C(CCCCN)NC(=O)c4ccc(Oc5ccccc5)cc4)C(=O)O)c4cc(O)cc(O)c4-c4cc3ccc4O)C(O)c3ccc(c(Cl)c3)Oc3cc2cc(c3OC2OC(CO)C(O)C(O)C2OC2CC(C)(N)C(O)C(C)O2)Oc2ccc(cc2Cl)C1O (stereo not drawn) [MCC_000194] | xxx (xxx = 0.1-<1) | x (x = >4) | xxx (xxx = 0.1-<1) |
| CCCCCCCC(=O)N[C@@H](CCCCN)C(=O)N[C@@H](CCCCN)C(=O)NCCCNC(=O)[C@H]1NC(=O)[C@H]2NC(=O)[C@H](NC(=O)[C@@H]3NC(=O)[C@H](CC(N)=O)NC(=O)[C@H](NC(=O)[C@@H](CC(C)C)NC)[C@H](O)c4ccc(c(Cl)c4)Oc4cc3cc(c4O[C@@H]3O[C@H](CO)[C@@H](O)[C@H](O)[C@H]3O[C@H]3C[C@](C)(N)[C@H](O)[C@H](C)O3)Oc3ccc(cc3Cl)[C@H]2O)c2ccc(O)c(c2)-c2c(O)cc(O)cc21 [MCC_005196] | xxx (xxx = 0.1-<1) | xx (xx = 1-4) | xxx (xxx = 0.1-<1) |
| CCCCCCCCCCCCCC(=O)N[C@@H](CCCCN)C(=O)N[C@@H](CCCCN)C(=O)N[C@@H](CCCCN)C(=O)N[C@@H](CCCCNC(=O)[C@H]1NC(=O)[C@H]2NC(=O)[C@H](NC(=O)[C@@H]3NC(=O)[C@H](CC(N)=O)NC(=O)[C@H](NC(=O)[C@@H](CC(C)C)NC)[C@H](O)c4ccc(c(Cl)c4)Oc4cc3cc(c4O[C@@H]3O[C@H](CO)[C@@H](O)[C@H](O)[C@H]3O[C@H]3C[C@](C)(N)[C@H](O)[C@H](C)O3)Oc3ccc(cc3Cl)[C@H]2O)c2ccc(O)c(c2)-c2c(O)cc(O)cc21)C(=O)NC [MCC_000343] | xxxxx (xxxxx = <0.01) | xxxx (xxxx = 0.01-<0.1) | xxxxx (xxxxx = <0.01) |
| CCCCCCCN1CCC(C(=O)N[C@@H](CCCCN)C(=O)N[C@@H](CCCCN)C(=O)N[C@@H](CCCCNC(=O)[C@H]2NC(=O)[C@H]3NC(=O)[C@H](NC(=O)[C@@H]4NC(=O)[C@H](CC(N)=O)NC(=O)[C@H](NC(=O)[C@@H](CC(C)C)NC)[C@H](O)c5ccc(c(Cl)c5)Oc5cc4cc(c5O[C@@H]4O[C@H](CO)[C@@H](O)[C@H](O)[C@H]4O[C@H]4C[C@](C)(N)[C@H](O)[C@H](C)O4)Oc4ccc(cc4Cl)[C@H]3O)c3ccc(O)c(c3)-c3c(O)cc(O)cc32)C(N)=O)CC1 [MCC_004820] | xxx (xxx = 0.1-<1) | x (x = >4) | xxxx (xxxx = 0.01-<0.1) |

The remaining lines, values ahead:

| Minimum Inhibitory Concentration (MIC) S. pneumoniae ATCC 700677 [1] | Minimum Inhibitory Concentration (MIC) E. faecium ATCC51559 [2] | Minimum Inhibitory Concentration (MIC) Staph. aureus ATCC43300 [3] | Structure (SMILES) |
| --- | --- | --- | --- |
| xxxx (xxxx = 0.01-<0.1) | xx (xx = 1-4) | xxxx (xxxx = 0.01-<0.1) | CCCCCCc1ccc(C(=O)NC(CCCCN)C(=O)NC(CCCCN)C(=O)NC(CCCCNC(=O)C2NC(=O)C3NC(=O)C(NC(=O)C4NC(=O)C(CC(N)=O)NC(=O)C(NC(=O)C(CC(C)C)NC)C(O)c5ccc(c(Cl)c5)Oc5cc4cc(c5OC4OC(CO)C(O)C(O)C4OC4CC(C)(N)C(O)C(C)O4)Oc4ccc(cc4Cl)C3O)c3ccc(O)c(c3)-c3c(O)cc(O)cc32)C(=O)NC)cc1 (stereo not drawn) [MCC_000499] |
| xxx (xxx = 0.1-<1) | x (x = >4) | xxx (xxx = 0.1-<1) | CNC(=O)C(CCCCNC(=O)C1NC(=O)C2NC(=O)C(NC(=O)C3NC(=O)C(CC(N)=O)NC(=O)C(NC(=O)C(CC(C)C)NC)C(O)c4ccc(c(Cl)c4)Oc4cc3cc(c4OC3OC(CO)C(O)C(O)C3OC3CC(C)(N)C(O)C(C)O3)Oc3ccc(cc3Cl)C2O)c2ccc(O)c(c2)-c2c(O)cc(O)cc21)NC(=O)C(CCCCN)NC(=O)C(CCCCN)NC(=O)CCCCCc1ccccc1 (stereo not drawn) [MCC_000507] |
| xxxxx (xxxxx = <0.01) | xx (xx = 1-4) | xxxx (xxxx = 0.01-<0.1) | CNC(=O)C(CCCCNC(=O)C1NC(=O)C2NC(=O)C(NC(=O)C3NC(=O)C(CC(N)=O)NC(=O)C(NC(=O)C(CC(C)C)NC)C(O)c4ccc(c(Cl)c4)Oc4cc3cc(c4OC3OC(CO)C(O)C(O)C3OC3CC(C)(N)C(O)C(C)O3)Oc3ccc(cc3Cl)C2O)c2ccc(O)c(c2)-c2c(O)cc(O)cc21)NC(=O)C(CCCCN)NC(=O)C(CCCCN)NC(=O)CCCCCCCCc1ccccc1 (stereo not drawn) [MCC_000509] |
| xxxxx (xxxxx = <0.01) | xxx (xxx = 0.1-<1) | xxxxx (xxxxx = <0.01) | CCCCCCCCCCC(=O)N[C@@H](CCCCN)C(=O)N[C@@H](CCCCN)C(=O)N[C@@H](CCCCN)C(=O)N[C@@H](CCCCNC(=O)[C@H]1NC(=O)[C@H]2NC(=O)[C@H](NC(=O)[C@@H]3NC(=O)[C@H](CC(N)=O)NC(=O)[C@H](NC(=O)[C@@H](CC(C)C)NC)[C@H](O)c4ccc(c(Cl)c4)Oc4cc3cc(c4O[C@@H]3O[C@H](CO)[C@@H](O)[C@H](O)[C@H]3O[C@H]3C[C@](C)(N)[C@H](O)[C@H](C)O3)Oc3ccc(cc3Cl)[C@H]2O)c2ccc(O)c(c2)-c2c(O)cc(O)cc21)C(=O)NC [MCC_000309] |
| xxx (xxx = 0.1-<1) | x (x = >4) | xxx (xxx = 0.1-<1) | CCCCCCC[C@H](O)CC(=O)N[C@@H](CCCCN)C(=O)N[C@@H](CCCCN)C(=O)N[C@@H](CCCCNC(=O)[C@H]1NC(=O)[C@H]2NC(=O)[C@H](NC(=O)[C@@H]3NC(=O)[C@H](CC(N)=O)NC(=O)[C@H](NC(=O)[C@@H](CC(C)C)NC)[C@H](O)c4ccc(c(Cl)c4)Oc4cc3cc(c4O[C@@H]3O[C@H](CO)[C@@H](O)[C@H](O)[C@H]3O[C@H]3C[C@](C)(N)[C@H](O)[C@H](C)O3)Oc3ccc(cc3Cl)[C@H]2O)c2ccc(O)c(c2)-c2c(O)cc(O)cc21)C(=O)O [MCC_005506] |
| xxx (xxx = 0.1-<1) | x (x = >4) | xxx (xxx = 0.1-<1) | CNC(=O)C(CCCCNC(=O)C1NC(=O)C2NC(=O)C(NC(=O)C3NC(=O)C(CC(N)=O)NC(=O)C(NC(=O)C(CC(C)C)NC)C(O)c4ccc(c(Cl)c4)Oc4cc3cc(c4OC3OC(CO)C(O)C(O)C3OC3CC(C)(N)C(O)C(C)O3)Oc3ccc(cc3Cl)C2O)c2ccc(O)c(c2)-c2c(O)cc(O)cc21)NC(=O)C(CCCCN)NC(=O)C(CCCCN)NC(=O)Cc1ccc(-c2ccccc2)cc1 (stereo not drawn) [MCC_000512] |
